Assay [1] concerns the target T1, 293T-hPD-L1 cells (binding of PE-labeled PD-1-Ig to human PD-L1) (Homo sapiens, UniProt Q9NZQ7).
T1 construct: expressed in transfected cells
Nature of the assay: 293T-hPD-L1 Cell Binding High-Content Screening Assay (CBA). The assay is classed as cell-based. Particulars: 293T cells over-expressing human PD-L1, PE-labeled PD-1-Ig 0.5 nM, 10% fetal calf serum; read-out: 293T-hPD-L1_PD-1 IC50. Here is the method: 293T-hPD-L1 Cell Binding High-Content Screening Assay (CBA). Phycoerythrin (PE) was covalently linked to the Ig epitope tag of human PD-1-Ig and fluorescently-labeled PD-1-Ig was used for binding studies with a human embryonic kidney cell line (293T) stably over-expressing human PD-L1 (293T-hPD-L1). Briefly, 2×10^3 293T-hPD-L1 cells were seeded into 384 well plates in 20 μl of DMEM supplemented with 10% fetal calf serum and cultured overnight. 125 nl of compound was added to cells followed by 5 μl of PE-labeled PD-1-Ig (0.5 nM final), diluted in DMEM supplemented with 10% fetal calf serum, followed by incubation at 37° C. for Ih. Cells were washed 3× in 100 μl dPBS followed by fixation with 30 μl of 4% paraformaldehyde in dPBS containing 10 μg/ml Hoechst 33342 for 30 min at room temperature. Cells were washed 3× in 100 μl of dPBS followed by final addition of 15 μl of dPBS. Data was collected and processed using a Cell Insight NXT High Content Imager and associated software.

The next assay concerns the target T2, PD-1-Ig/PD-L1-His (Homo sapiens, UniProt Q9NZQ7).
T2 construct: hPDL1(19-239)-TVMV-His; TVMV protease cleavage site (C); made in house; host or cells: HEK293T
Description: PD-1/PD-L1 Homogenous Time-Resolved Fluorescence (HTRF) binding assay. An excerpt: The ability of the macrocyclic peptides of the present disclosure to bind to PD-L1 was investigated using a PD-1/PD-L1 Homogenous Time-Resolved Fluorescence (HTRF) binding assay.
Homogenous Time-Resolved Fluorescence (HTRF) Assays of Binding of Soluble PD-1 to Soluble PD-L1. Soluble PD-1 and soluble PD-L1 refers to proteins with carboxyl-end truncations that remove the transmembrane-spanning regions and are fused to heterologous sequences, specifically the Fc portion of the human immunoglobulin G sequence (Ig) or the hexahistidine epitope tag (His). All binding studies were performed in an HTRF assay buffer consisting of dPBS supplemented with 0.1% (w/v) bovine serum albumin and 0.05% (v/v) Tween-20. For the PD-1-Ig/PD-L1-His binding assay, inhibitors were pre-incubated with PD-L1-His (10 nM final) for 15 m in 4 μl of assay buffer, followed by addition of PD-1-Ig (20 nM final) in 1 μl of assay buffer and further incubation for 15 m. PD-L1 fusion proteins from either human, cynomologous macaques, mouse, or other species were used. HTRF detection was achieved using europium crypate-labeled anti-Ig monoclonal antibody (1 nM final) and allophycocyanin (APC) labeled anti-His monoclonal antibody (20 nM final). Antibodies were diluted in HTRF detection buffer and 5 μl was dispensed on top of binding reaction. The reaction was allowed to equilibrate for 30 minutes and signal (665 nm/620 nm ratio) was obtained using an EnVision fluorometer. Additional binding assays were established between PD-1-Ig/PD-L2-His (20 and 5 nM, respectively), CD80-His/PD-L1-Ig (100 and 10 nM, respectively) and CD80-His/CTLA4-Ig (10 and 5 nM, respectively).
Recombinant Proteins. Carboxyl-truncated human PD-1 (amino acids 25-167) with a C-terminal human Ig epitope tag [hPD-1 (25-167)-3S-IG] and human PD-L1 (amino acids 18-239) with a C-terminal His epitope tag [hPD-L1(19-239)-tobacco vein mottling virus protease cleavage site (TVMV)-His] were expressed in HEK293T cells and purified sequentially by recombinant Protein A affinity chromatography and size exclusion chromatography. Human PD-L2-His (Sino Biologicals), CD80-His (Sino Biologicals), CTLA4-Ig (RnD Systems) were all obtained through commercial sources.
A general note: In TR-FRET formats the signal depends on donor and acceptor labels being close together.

For assay [2], the target named is Recombinant Human PD-L1-TVMV-His, hPDL1(19-239)-TVMV-His (human) (UniProt Q9NZQ7). Description: HTRF competition, inhibits PD-1-Ig binding to PD-L1-His.
Recombinant Human PD-L1-TVMV-His, hPDL1(19-239)-TVMV-His (human), sequence (Q9NZQ7 other isoform, or with tags, fused parts or gaps limits assumed): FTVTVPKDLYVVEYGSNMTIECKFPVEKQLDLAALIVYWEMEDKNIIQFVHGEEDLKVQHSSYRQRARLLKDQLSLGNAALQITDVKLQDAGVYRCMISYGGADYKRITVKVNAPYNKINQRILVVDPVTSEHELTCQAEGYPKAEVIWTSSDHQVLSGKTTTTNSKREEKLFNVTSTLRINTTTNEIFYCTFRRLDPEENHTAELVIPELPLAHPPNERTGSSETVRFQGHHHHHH
[3] abbreviates: soluble hPD-1-Ig / hPD-L1-His, HTRF, read-out: LE HTRF hPD1 hPDL1 IC50.

Where two headings read alike, the source gives them in different places. Starred links: 1 amine or outer side, 2 acyl side, 3 side chain; linkers in the order of their positions; H or OH if unused. Positions of bridges follow the written chain, without caps; N, C: chain ends. Non-standard residues stand in square brackets, D forms with d. Groups on a side chain read outwards from the residue. Primed or numbered codes have the meaning given here. *: point of attachment. Trp(1-CH2CO) = O=C([C@H](Cc1cn(CC(=O)[*:3])c2ccccc12)N[*:1])[*:2]; Pra′ = C-terminal residue bearing an alkyne, joined as triazole; Hexadecanoyl(16-SO3H) = O=C(CCCCCCCCCCCCCCCS(=O)(=O)O)*; γGlu = O=C(O)[C@H](CCC(=O)[*:2])N[*:1]; Hyp = O=C(O)[C@@H]1C[C@@H](O)CN1; NMeNle = CCCC[C@H](NC)C(=O)O; PEG11′ = not defined here; NMeA = CN[C@@H](C)C(=O)O; Dab = NCC[C@H](N)C(=O)O; Dap = NC[C@H](N)C(=O)O

We go through seven molecules from patent US20240199701A1, “IMMUNOMODULATORS” (BRISTOL-MYERS SQUIBB COMPANY, priority 2021, published 2024).

T1 sequence (Q9NZQ7 19-290): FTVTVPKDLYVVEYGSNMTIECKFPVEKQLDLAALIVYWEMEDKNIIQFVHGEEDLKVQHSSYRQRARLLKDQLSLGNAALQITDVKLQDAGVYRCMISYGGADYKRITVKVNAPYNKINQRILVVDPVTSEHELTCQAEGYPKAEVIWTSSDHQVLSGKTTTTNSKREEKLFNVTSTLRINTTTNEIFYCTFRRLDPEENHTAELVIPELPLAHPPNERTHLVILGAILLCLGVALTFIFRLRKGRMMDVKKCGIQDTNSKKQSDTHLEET

As to `CCCC[C@H]1C(=O)N(C)[C@@H](CCCC)C(=O)N[C@@H](CC(C)C)C(=O)N[C@H](C(=O)N[C@@H](C)C(=O)N[C@@H](Cc2cn(CCOCCOCCOCCOCCOCCOCCOCCOCCOCCOCCOCCNC(=O)CC[C@H](NC(=O)CCCCCCCCCCCCCCCS(=O)(=O)O)C(=O)O)nn2)C(=O)O)CSCC(=O)N[C@@H](Cc2ccc(O)cc2)C(=O)N(C)[C@@H](C)C(=O)N[C@@H](CC(N)=O)C(=O)N2CCC[C@H]2C(=O)N[C@@H](CN)C(=O)N[C@@H](CC(C)C)C(=O)N2C[C@H](O)C[C@H]2C(=O)N[C@@H](Cc2c[nH]c3ccccc23)C(=O)N[C@@H](CCN)C(=O)N[C@@H](Cc2cn(CC(=O)O)c3ccccc23)C(=O)N1C` [Example 1002], the results for the IC50 (in assay [1]; on PD-1-Ig/PD-L1-His (setting [3])) were 0.1 nM and 2 nM, respectively.
For `CCCC[C@H]1C(=O)N(C)[C@@H](CCCC)C(=O)N[C@@H](CC(C)C)C(=O)N[C@H](C(=O)N[C@@H](CCCN)C(=O)N[C@@H](Cc2cn(CCOCCOCCOCCOCCOCCOCCOCCOCCOCCOCCOCCNC(=O)CC[C@H](NC(=O)CCCCCCCCCCCCCCCS(=O)(=O)O)C(=O)O)nn2)C(=O)O)CSCC(=O)N[C@@H](Cc2ccc(O)cc2)C(=O)N(C)[C@@H](C)C(=O)N[C@@H](CC(N)=O)C(=O)N2CCC[C@H]2C(=O)N[C@@H](CN)C(=O)N[C@@H](CC(C)C)C(=O)N2C[C@H](O)C[C@H]2C(=O)N[C@@H](Cc2c[nH]c3ccccc23)C(=O)N[C@@H](CCN)C(=O)N[C@@H](Cc2cn(CC(=O)O)c3ccccc23)C(=O)N1C` [Example 1003], the IC50 (in general, the concentration needed to halve the response being measured) on PD-1-Ig/PD-L1-His (setting [3]) came out at 38.1 nM.
For the molecule `CCCC[C@H]1C(=O)N(C)[C@@H](CCCC)C(=O)N[C@@H](CC(C)C)C(=O)N[C@H](C(=O)NCC(=O)N[C@@H](Cc2cn(CCOCCOCCNC(=O)[C@H](CCC(=O)O)NC(=O)CC[C@H](NC(=O)CCCCCCCCCCCCCCCS(=O)(=O)O)C(=O)O)nn2)C(=O)O)CSCC(=O)N[C@@H](Cc2ccc(O)cc2)C(=O)N(C)[C@@H](C)C(=O)N[C@@H](CC(N)=O)C(=O)N2CCC[C@H]2C(=O)N[C@@H](CN)C(=O)N[C@@H](CC(C)C)C(=O)N2C[C@H](O)C[C@H]2C(=O)N[C@@H](Cc2c[nH]c3ccccc23)C(=O)N[C@@H](CCN)C(=O)N[C@@H](Cc2cn(CC(=O)O)c3ccccc23)C(=O)N1C` [Example 1006], in assay [1], the IC50 stood at 61.8 nM.
Molecule `CCCC[C@H]1C(=O)N(C)[C@@H](CCCC)C(=O)N[C@@H](CC(C)C)C(=O)N[C@H](C(=O)NCC(=O)N[C@@H](Cc2cn(CCOCCOCCOCCOCCOCCOCCOCCOCCOCCOCCOCCNC(=O)CC[C@H](NC(=O)CCCCCCCCCCCCCCCP(=O)(O)O)C(=O)O)nn2)C(=O)O)CSCC(=O)N[C@@H](Cc2ccc(O)cc2)C(=O)N(C)[C@@H](C)C(=O)N[C@@H](CC(N)=O)C(=O)N2CCC[C@H]2C(=O)N[C@@H](CN)C(=O)N[C@@H](CC(C)C)C(=O)N2C[C@H](O)C[C@H]2C(=O)N[C@@H](Cc2c[nH]c3ccccc23)C(=O)N[C@@H](CCN)C(=O)N[C@@H](Cc2cn(CC(=O)O)c3ccccc23)C(=O)N1C` [Example 1007] returned an IC50 on PD-1-Ig/PD-L1-His of 14 nM.
Regarding `CCCC[C@H]1C(=O)N(C)[C@@H](CCCC)C(=O)N[C@@H](CC(C)C)C(=O)N[C@H](C(=O)NCC(=O)N[C@@H](Cc2cn(CCOCCOCCOCCOCCOCCOCCOCCOCCOCCOCCOCCNC(=O)CC[C@H](NC(=O)CCCCCCCCCCCCCCCS(=O)(=O)O)C(=O)O)nn2)C(=O)O)CSCC(=O)N[C@@H](Cc2ccc(O)cc2)C(=O)N(C)[C@@H](C)C(=O)N[C@@H](CC(N)=O)C(=O)N2CCC[C@H]2C(=O)N[C@@H](CN)C(=O)N[C@@H](CC(C)C)C(=O)N2C[C@H](O)C[C@H]2C(=O)N[C@@H](Cc2c[nH]c3ccccc23)C(=O)N[C@@H](CCN)C(=O)N[C@@H](Cc2cn(CC(=O)O)c3ccccc23)C(=O)N1C` [Example 1008], the results for the IC50 (in assay [1]; on PD-1-Ig/PD-L1-His (setting [3])) were 1.2 nM and 7.3 nM, respectively.
As to `CCCC[C@H]1C(=O)N(C)[C@@H](CCCC)C(=O)N[C@@H](CC(C)C)C(=O)N[C@H](C(=O)NCC(=O)N[C@@H](Cc2cn(CCOCCOCCOCCNC(=O)CC[C@H](NC(=O)CCCCCCCCCCCS(=O)(=O)O)C(=O)O)nn2)C(=O)O)CSCC(=O)N[C@@H](Cc2ccc(O)cc2)C(=O)N(C)[C@@H](C)C(=O)N[C@@H](CC(N)=O)C(=O)N2CCC[C@H]2C(=O)N[C@@H](CN)C(=O)N[C@@H](CC(C)C)C(=O)N2C[C@H](O)C[C@H]2C(=O)N[C@@H](Cc2c[nH]c3ccccc23)C(=O)N[C@@H](CCN)C(=O)N[C@@H](Cc2cn(CC(=O)O)c3ccccc23)C(=O)N1C` [Example 1010], in assay [1], the half-inhibitory concentration (IC50) worked out at 0.13 nM.
For the molecule {CH2CO}-Y[NMeA]NP[Dap]L[Hyp]W[Dab][Trp(1-CH2CO)][NMeNle][NMeNle]LC[Pra′]([PEG11′-γGlu-Hexadecanoyl(16-SO3H)])-OH (thioether N-14; also: Pra linked to Peg11 via triazole) [Example 1001], the IC50 in assay [2] amounted to 0.6 nM.
